The values below come from patent publication US6936283B2, “Composition for stimulation of specific metallo-enzymes” (priority 2003, dated 2005).

Assay [1] concerns the target liver alcohol dehydrogenase (LADH). To be noted: inhibit the activity of LADH enzyme, ref [1]; given in words only; cited from earlier work.
The next assay has as its system healthy individuals. Briefly: Alcohol metabolism in test persons after vodka, alcohol level measured with CA 2000 Digital Alcohol Detector every 30 minutes. Type of assay: in vivo, human. To be noted: from comparing the fructose-containing and fructose-free compositions. The protocol: The study presented in Table 2 and 3 included 10 individuals (6 males and 4 females, 24-57 years old).
In the first study (Table 2A) the test persons were given 8 oz. (ca.2.4 dl) of vodka mixed with 6 dl Sprite (The Coca Cola Company). The alcohol was consumed within one hour. 45 minutes after alcohol consumption each person drank 500 ml water. The alcohol level was then measured as described under.
One week later, the same test persons were given the same amount of vodka and Sprite. 45 minutes after alcohol consumption each test person drank 500 ml of the composition of the present invention. The alcohol level was then measured as described under.
Both part of the second study (Table 2 B) was performed in the same way as described for the study presented […], with the exception that the test persons were given a 500 ml solution containing 90 g fructose, 90 mg caffeine and 500 mg vitamin C instead of the composition of the present invention. The alcohol level was again measured as described below.
The alcohol level (measured in 0/00) was measured with a CA 2000 Digital Alcohol Detector once every 30 minutes in each experiment. Each value is an average of four parallel measurements.

Structures are written as SMILES.

As to `N[C@@H](CCC(=O)N[C@@H](CS)C(=O)NCC(=O)O)C(=O)O` [glutathione], in assay [1], the Ki result is “in the uM-mM area”.

Regarding `N[C@@H](CS)C(=O)O` [cysteine], the Ki entry in assay [1] is “in the uM-mM area”. For `CC(=O)N[C@@H](CS)C(=O)O` [acetylcysteine], the Ki result in assay [1] is “in the uM-mM area”.

`CSCC[C@H](N)C(=O)O` [methionine]: the Ki result in assay [1] is “in the uM-mM area”. With `O=C(CO)[C@@H](O)[C@H](O)[C@H](O)CO` [fructose], in the assay with healthy individuals, the “contribution to the acceleration of alcohol degradation” value was 20-25%.
